“Also recorded” adds a separate entry of the source. Read-outs that look alike come from different tables or passages of the source.
Tests used:
[1] = tested on: cigarette smoke-induced pulmonary macrophage and neutrophil influx; assay: Cigarette Smoke Model; assay type: in vivo, mouse; details: A/J mice; for anti-inflammatory activity (BALF neutrophils and alveolar macrophages), monotherapy: twice daily for 3 days after final smoke exposure
Description: A/J mice (males, 5 weeks old) were exposed to cigarette smoke (4% cigarette smoke, diluted with compressed air) for 30 min/day for 11 days using a Tobacco Smoke Inhalation Experiment System for small animals (Model SIS-CS; Sibata Scientific Technology, Tokyo, Japan). Test substances were given intra-nasally (35 μL of solution in 50% DMSO/PBS) and therapeutically twice daily for 3 days after the final cigarette smoke exposure. Twelve hr after the last dosing, animals were anesthetized, the trachea cannulated and bronchoalveolar lavage fluid (BALF) was collected. The numbers of alveolar macrophages and neutrophils were determined by FACS analysis (EPICS® ALTRA II, Beckman Coulter, Inc., Fullerton, Calif., USA) using anti-mouse MOMA2 antibody (macrophage) or anti-mouse 7/4 antibody (neutrophil).

[2] = biological target: recombinant PI3 kinase α (Homo sapiens (Human), UniProt P42336); assay: Enzyme Inhibition Assay (HTRF PI3K enzyme assay, TR-FRET); assay type: biochemical
Sequence of recombinant PI3 kinase α (P42336 whole entry, the tested form may be a part): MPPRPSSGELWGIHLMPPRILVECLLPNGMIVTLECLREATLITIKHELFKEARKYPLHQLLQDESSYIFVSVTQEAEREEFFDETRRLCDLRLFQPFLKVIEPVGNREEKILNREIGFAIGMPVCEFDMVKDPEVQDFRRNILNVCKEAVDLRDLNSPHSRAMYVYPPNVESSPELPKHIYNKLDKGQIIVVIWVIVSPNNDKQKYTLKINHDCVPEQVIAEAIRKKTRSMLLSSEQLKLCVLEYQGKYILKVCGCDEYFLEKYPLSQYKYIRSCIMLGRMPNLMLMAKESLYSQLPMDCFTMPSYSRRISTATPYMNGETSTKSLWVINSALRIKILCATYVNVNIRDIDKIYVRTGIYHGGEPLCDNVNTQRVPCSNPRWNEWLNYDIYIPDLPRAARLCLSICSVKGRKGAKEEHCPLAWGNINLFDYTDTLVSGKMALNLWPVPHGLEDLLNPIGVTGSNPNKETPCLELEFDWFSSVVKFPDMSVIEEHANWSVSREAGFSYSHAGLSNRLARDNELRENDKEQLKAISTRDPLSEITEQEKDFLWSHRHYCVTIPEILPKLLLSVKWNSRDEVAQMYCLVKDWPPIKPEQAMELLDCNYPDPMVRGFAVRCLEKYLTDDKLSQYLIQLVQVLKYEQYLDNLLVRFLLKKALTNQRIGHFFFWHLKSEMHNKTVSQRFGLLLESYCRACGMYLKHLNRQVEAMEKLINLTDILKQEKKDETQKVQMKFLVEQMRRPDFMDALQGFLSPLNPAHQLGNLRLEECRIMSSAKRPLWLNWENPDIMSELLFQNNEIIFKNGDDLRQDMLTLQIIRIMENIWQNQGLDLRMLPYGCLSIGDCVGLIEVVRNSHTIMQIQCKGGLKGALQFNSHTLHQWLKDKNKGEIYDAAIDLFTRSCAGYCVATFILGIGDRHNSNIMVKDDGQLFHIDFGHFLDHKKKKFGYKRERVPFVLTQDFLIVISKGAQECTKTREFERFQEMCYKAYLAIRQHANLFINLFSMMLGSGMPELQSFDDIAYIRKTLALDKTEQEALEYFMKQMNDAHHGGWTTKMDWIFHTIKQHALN
Sequence of recombinant PI3 kinase α (P27986 whole entry partner, the tested form may be a part): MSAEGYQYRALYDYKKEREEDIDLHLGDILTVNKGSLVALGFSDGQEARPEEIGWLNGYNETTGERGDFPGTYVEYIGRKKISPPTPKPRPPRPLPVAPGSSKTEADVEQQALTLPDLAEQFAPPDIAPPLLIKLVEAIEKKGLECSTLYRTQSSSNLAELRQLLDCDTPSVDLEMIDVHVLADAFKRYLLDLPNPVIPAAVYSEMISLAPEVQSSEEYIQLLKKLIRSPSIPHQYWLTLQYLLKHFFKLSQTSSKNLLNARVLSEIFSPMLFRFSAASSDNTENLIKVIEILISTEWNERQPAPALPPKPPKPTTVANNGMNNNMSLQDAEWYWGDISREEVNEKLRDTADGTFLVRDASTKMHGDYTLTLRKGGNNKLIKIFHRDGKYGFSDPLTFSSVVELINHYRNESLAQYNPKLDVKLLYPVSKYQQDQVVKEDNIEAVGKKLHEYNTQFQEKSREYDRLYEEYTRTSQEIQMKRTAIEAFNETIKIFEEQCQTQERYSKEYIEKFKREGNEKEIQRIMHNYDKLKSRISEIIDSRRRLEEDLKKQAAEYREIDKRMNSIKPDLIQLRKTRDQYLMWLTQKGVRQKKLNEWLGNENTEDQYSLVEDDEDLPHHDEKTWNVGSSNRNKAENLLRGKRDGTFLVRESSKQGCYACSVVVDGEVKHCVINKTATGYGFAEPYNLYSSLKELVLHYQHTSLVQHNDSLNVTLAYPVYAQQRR
In short: (§1)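 Recombinant PI3Kα, δ or γ incubated with PIP2 substrate and compound for 2 hr at RT. Stop solution with biotin-PIP3 and GST-GRP1 PH domain/Eu-anti-GST/SA-APC detection mix added, then 15-18 hr at RT. PIP3 formed reduces the TR-FRET signal.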

[3] = biological target: recombinant PI3 kinase γ (Homo sapiens (Human), UniProt P48736); assay: as above; assay type: biochemical
Sequence of recombinant PI3 kinase γ (P48736 whole entry): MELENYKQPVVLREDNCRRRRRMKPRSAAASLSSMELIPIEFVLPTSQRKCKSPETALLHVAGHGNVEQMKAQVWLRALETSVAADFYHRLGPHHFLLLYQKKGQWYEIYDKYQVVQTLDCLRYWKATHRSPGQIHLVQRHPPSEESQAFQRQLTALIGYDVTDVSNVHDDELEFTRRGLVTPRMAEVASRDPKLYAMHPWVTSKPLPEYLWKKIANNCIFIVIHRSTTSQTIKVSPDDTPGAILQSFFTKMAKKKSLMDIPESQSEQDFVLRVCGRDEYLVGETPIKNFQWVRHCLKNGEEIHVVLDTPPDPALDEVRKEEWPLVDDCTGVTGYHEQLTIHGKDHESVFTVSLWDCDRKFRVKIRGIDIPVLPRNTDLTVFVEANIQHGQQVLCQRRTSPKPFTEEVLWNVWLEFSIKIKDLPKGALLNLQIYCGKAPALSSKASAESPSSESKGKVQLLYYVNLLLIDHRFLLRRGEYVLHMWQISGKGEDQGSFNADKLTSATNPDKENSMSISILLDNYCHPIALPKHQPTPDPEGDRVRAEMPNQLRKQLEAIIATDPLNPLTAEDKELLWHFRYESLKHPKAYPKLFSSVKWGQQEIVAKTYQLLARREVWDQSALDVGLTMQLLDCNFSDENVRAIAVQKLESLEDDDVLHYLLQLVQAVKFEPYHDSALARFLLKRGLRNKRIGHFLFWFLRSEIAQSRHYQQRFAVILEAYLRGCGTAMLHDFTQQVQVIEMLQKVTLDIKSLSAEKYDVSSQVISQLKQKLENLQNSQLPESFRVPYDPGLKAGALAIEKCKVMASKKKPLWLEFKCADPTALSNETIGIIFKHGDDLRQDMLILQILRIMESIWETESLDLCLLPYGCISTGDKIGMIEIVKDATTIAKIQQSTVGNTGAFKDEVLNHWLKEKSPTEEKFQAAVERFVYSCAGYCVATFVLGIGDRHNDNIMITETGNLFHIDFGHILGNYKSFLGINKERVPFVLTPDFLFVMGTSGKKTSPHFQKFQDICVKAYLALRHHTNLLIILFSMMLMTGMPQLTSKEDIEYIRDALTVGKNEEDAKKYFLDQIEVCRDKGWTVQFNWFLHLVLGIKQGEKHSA
In short: as §1

[4] = biological target: recombinant PI3 kinase δ (Homo sapiens (Human), UniProt O00329); assay: as above; assay type: biochemical
Sequence of recombinant PI3 kinase δ (O00329 whole entry): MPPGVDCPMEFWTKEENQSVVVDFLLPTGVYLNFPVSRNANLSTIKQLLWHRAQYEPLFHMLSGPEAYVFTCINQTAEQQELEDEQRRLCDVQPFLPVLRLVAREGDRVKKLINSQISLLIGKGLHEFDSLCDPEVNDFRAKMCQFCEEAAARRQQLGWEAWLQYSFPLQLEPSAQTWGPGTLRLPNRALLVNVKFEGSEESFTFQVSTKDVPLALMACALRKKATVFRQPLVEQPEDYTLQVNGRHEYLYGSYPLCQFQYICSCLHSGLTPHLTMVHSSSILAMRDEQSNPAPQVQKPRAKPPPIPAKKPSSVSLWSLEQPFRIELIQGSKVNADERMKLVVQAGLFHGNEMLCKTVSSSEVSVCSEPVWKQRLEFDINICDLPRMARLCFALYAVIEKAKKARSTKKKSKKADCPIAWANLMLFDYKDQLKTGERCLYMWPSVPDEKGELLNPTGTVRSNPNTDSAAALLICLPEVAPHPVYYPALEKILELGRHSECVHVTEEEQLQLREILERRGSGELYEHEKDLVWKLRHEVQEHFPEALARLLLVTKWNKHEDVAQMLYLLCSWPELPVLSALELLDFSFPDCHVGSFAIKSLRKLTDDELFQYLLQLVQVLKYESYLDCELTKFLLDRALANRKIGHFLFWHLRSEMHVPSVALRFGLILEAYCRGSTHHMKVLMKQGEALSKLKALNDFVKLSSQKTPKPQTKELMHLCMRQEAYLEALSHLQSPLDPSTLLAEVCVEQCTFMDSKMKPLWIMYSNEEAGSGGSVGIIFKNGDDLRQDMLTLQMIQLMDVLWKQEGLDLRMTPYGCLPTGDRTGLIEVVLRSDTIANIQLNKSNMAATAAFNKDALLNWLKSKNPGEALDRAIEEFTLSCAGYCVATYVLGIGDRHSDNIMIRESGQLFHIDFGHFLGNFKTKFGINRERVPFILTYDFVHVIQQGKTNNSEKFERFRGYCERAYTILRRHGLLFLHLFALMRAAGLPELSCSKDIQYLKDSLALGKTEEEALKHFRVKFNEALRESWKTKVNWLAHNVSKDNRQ
Sequence of recombinant PI3 kinase δ (P27986 whole entry partner): as the sequence (P27986 whole entry partner, the tested form may be a part) above
In short: as §1

[5] = Stereochemical analysis by chiral stationary phase HPLC (atropisomerism); assay type: physicochemical; details: chiral stationary phase HPLC (16 different conditions for the examples)
Description: Each of these mobile phase are compatible with the column packings referred to above, providing sixteen different solvent and stationary phase permutations. Modifiers such as triethylamine (0.1%), formic acid (0.1%) may be added to improve the resolution
Semi-preparative Chiral Stationary Phase LC-UV was performed on a Gilson preparative modular system using a Daicel Chiralpak AD semi-prep column ([…], 20×250 mm) and a flow rate of 18 mL/min eluting with an isocratic method over 20 min using […] heptane:IPA and 0.1% triethylamine employing an injection volume of 1.0 mL.

[6] = tested on: PMA-differentiated U937 cells; assay: MTT Assay (cell viability); assay type: cell-based, Human; details: percentage loss of cell viability; for Cell Viability MTT Assay in D-U937 cells at 4 hr: 4 hr in 5% FCS; for Cell Viability MTT Assay in D-U937 cells at 24 hr: 24 hr in 10% FCS
In short: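 Differentiated U937 cells treated with compound for 4 hr (5% FCS) or 24 hr (10% FCS), then given MTT for 1 hr; formazan dissolved in DMSO and absorbance read at 550 nm. Viability loss expressed as % versus 0.5% DMSO vehicle.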

[7] = tested on: LPS induced neutrophilia in mouse lung; assay: LPS-Induced Neutrophilia in the Mouse; assay type: in vivo; details: for inhibition of LPS-induced neutrophilia (neutrophil influx into the lung), in words: intra-tracheal dosing before LPS challenge; for % Inhibition of neutrophils in BAL at the dose indicated (mg/mL) (0.05): 0.05 mg/mL intra-tracheal; for % Inhibition of neutrophils in BAL at the dose indicated (mg/mL) (0.05) / % Inhibition of neutrophils in BAL at the dose indicated (mg/mL) (0.2) / % Inhibition of neutrophils in BAL at the dose indicated (mg/mL) (1.0): 2 hr before LPS challenge; for % Reduction of inhibition at 8 hr compared with 2 hr: 0.2 mg/mL dose; for % Reduction of inhibition at 8 hr compared with 2 hr / % Inhibition at 0.2 mg/mL dose at time indicated (hr) (2) / % Inhibition at 0.2 mg/mL dose at time indicated (hr) (8): mouse lung; for % Inhibition of neutrophils in BAL at the dose indicated (mg/mL) (0.2): 0.2 mg/mL intra-tracheal; for % Inhibition at 0.2 mg/mL dose at time indicated (hr) (2): dosed 2 hr before LPS challenge; for % Inhibition at 0.2 mg/mL dose at time indicated (hr) (8): dosed 8 hr before LPS challenge; for % Inhibition of neutrophils in BAL at the dose indicated (mg/mL) (1.0): 1.0 mg/mL intra-tracheal
Description: Non-fasted mice were dosed by the intra-tracheal route with either vehicle, or the test substance at the time points (“pre-dose”) indicated with respect to the start of LPS treatment. At T=0, mice were placed into an exposure chamber and exposed to LPS. Eight hr after LPS challenge, animals were anesthetized, the trachea cannulated and BALF extracted by infusing and withdrawing 1 mL of PBS into the lungs via a tracheal catheter. Total and differential white cell counts in the BALF samples were measured using a Neubaur haemocytometer. Cytospin smears of the BALF samples were prepared by centrifugation at 200 rpm for 5 min at RT and stained using a DiffQuik stain system (Dade Behring). Cells were counted using oil immersion microscopy.

[8] = tested on: H2O2 induced pAkt in D-U937 cells; assay: PI3Kδ Cell Based Assay (H2O2 induced pAkt); details: Homo sapiens, dU937
In short: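 U937 cells differentiated to macrophage-type cells with PMA (100 ng/mL, 48 to 72 hr), then stimulated with H2O2. pAkt and total Akt detected by antibody-based immunoassay. Ratio of pAkt to total Akt signal used; IC50 from concentration-response curves of serially diluted compounds.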

[9] = activity range, read-out: PI3 Kinase Inhibition IC50 values at stated Isozyme α
[10] = read-out: PI3 Kinase Inhibition IC50 values at stated Isozyme (nM) α
[11] = activity range, read-out: PI3 Kinase Inhibition IC50 values at stated Isozyme γ
[12] = read-out: PI3 Kinase Inhibition IC50 values at stated Isozyme (nM) γ
[13] = activity range, read-out: PI3 Kinase Inhibition IC50 values at stated Isozyme δ
[14] = read-out: PI3 Kinase Inhibition IC50 values at stated Isozyme (nM) δ
[15] = activity range, D-U937 cells, read-out: Cellular Activity IC50 values (H2O2 induced pAkt D-U937 Cells)
[16] = read-out: Cellular Activity IC50 values (H2O2 induced pAkt (nM) D-U937 Cells)

IC50 [2, 9] [nM] | IC50 [2, 10] [nM] | IC50 [3, 11] [nM] | IC50 [3, 12] [nM] | IC50 [4, 13] [nM] | IC50 [4, 14] [nM] | IC50 [8, 15] [nM] | IC50 [8, 16] [nM] | Compound | anti-inflammatory activity (BALF neutrophils and alveolar macrophages), monotherapy [1] | Cell Viability MTT Assay in D-U937 cells at 4 hr [6] | Cell Viability MTT Assay in D-U937 cells at 24 hr [6] | inhibition of LPS-induced neutrophilia (neutrophil influx into the lung), in words ([7]; mouse) | % Inhibition of neutrophils in BAL at the dose indicated (mg/mL) (0.05) ([7]; mouse) [%] | % Reduction of inhibition at 8 hr compared with 2 hr [7] [%] | % Inhibition of neutrophils in BAL at the dose indicated (mg/mL) (0.2) ([7]; mouse) [%] | % Inhibition at 0.2 mg/mL dose at time indicated (hr) (2) [7] [%] | % Inhibition at 0.2 mg/mL dose at time indicated (hr) (8) [7] [%] | % Inhibition of neutrophils in BAL at the dose indicated (mg/mL) (1.0) ([7]; mouse) [%] | further results
50 to 1000 | 199 | 50 to 1000 | 234 | < 50 | 7 | < 10 | 1.1 | C#Cc1cccc2nc(Cn3nc(-c4cccc(O)c4)c4c(N)ncnc43)n(Cc3ccccc3Cl)c(=O)c12 [Example 1, 2-((4-Amino-3-(3-hydroxyphenyl)-1H-pyrazolo[3,4-d]pyrimidin-1-yl)methyl)-3-(2-chlorobenzyl)-5-ethynylquinazolin-4(3H)-one] | inhibition; also recorded: possesses anti-inflammatory activity | − (− <30%) | − (− <30%) | Inhibition of LPS-induced neutrophilia |  |  |  |  |  |  | anti-inflammatory activity when co-administered with fluticasone propionate ([1]; co-administered with fluticasone propionate at a dose which lacks effect as monotherapy): marked enhancement of anti-inflammatory activity; atropisomerism by chiral stationary phase HPLC [5]: no evidence for atropisomerism was observed
< 50 | 20 | < 50 | 16 | < 50 | 20 | < 10 | 0.58 | Nc1ncnc2c1c(-c1ccc(O)cc1)nn2Cc1nc2cccc(C#CCCCC(=O)N3CCOCC3)c2c(=O)n1Cc1ccccc1Cl [Example 5, 2-((4-Amino-3-(4-hydroxyphenyl)-1H-pyrazolo[3,4-d]pyrimidin-1-yl)methyl)-3-(2-chlorobenzyl)-5-(6-morpholino-6-oxohex-1-yn-1-yl)quinazolin-4(3H)-one] |  | − (− <30%) | − (− <30%) | dose dependent inhibition | 4.8 | 44 | 37.7 | 37.7 | 21.2 | 58.5 | level of anti-inflammatory activity at the 8 hr time point relative to value 2 hr after drug treatment ([7]; same dose, LPS challenge, mouse): over half of its original value
 |  |  |  |  |  |  |  | C[C@@H]1C[C@H]2[C@@H]3CCC4=CC(=O)C=C[C@]4(C)[C@@]3(F)[C@@H](O)C[C@]2(C)[C@@]1(O)C(=O)CO [dexamethasone, reference compound] |  |  |  |  |  |  |  |  |  |  | anti-inflammatory activity (BALF neutrophils and alveolar macrophages) ([1]; 0.3-10 mg/kg, p.o.): inactive
 |  |  |  |  |  |  |  | CCC(=O)O[C@]1(C(=O)SCF)[C@H](C)C[C@H]2[C@@H]3C[C@H](F)C4=CC(=O)C=C[C@]4(C)[C@@]3(F)[C@@H](O)C[C@@]21C [fluticasone propionate, reference compound] | lacks effect as monotherapy |  |  |  |  |  |  |  |  |  | 

Compound | IC50 [2, 9] [nM] | IC50 [2, 10] [nM] | IC50 [3, 11] [nM] | IC50 [3, 12] [nM] | IC50 [4, 13] [nM] | IC50 [4, 14] [nM] | IC50 [8, 15] [nM] | IC50 [8, 16] [nM] | anti-inflammatory activity (BALF neutrophils and alveolar macrophages), monotherapy [1] | Cell Viability MTT Assay in D-U937 cells at 4 hr [6] | Cell Viability MTT Assay in D-U937 cells at 24 hr [6] | inhibition of LPS-induced neutrophilia (neutrophil influx into the lung), in words ([7]; mouse) | % Inhibition of neutrophils in BAL at the dose indicated (mg/mL) (0.05) ([7]; mouse) [%] | % Reduction of inhibition at 8 hr compared with 2 hr [7] [%] | % Inhibition of neutrophils in BAL at the dose indicated (mg/mL) (0.2) ([7]; mouse) [%] | % Inhibition at 0.2 mg/mL dose at time indicated (hr) (2) [7] [%] | % Inhibition at 0.2 mg/mL dose at time indicated (hr) (8) [7] [%] | % Inhibition of neutrophils in BAL at the dose indicated (mg/mL) (1.0) ([7]; mouse) [%] | further results
Nc1ncnc2c1c(-c1ccc(O)cc1)nn2Cc1nc2cccc(C#CCCCC(=O)O)c2c(=O)n1Cc1ccccc1Cl [Example 4, 6-(2-((4-Amino-3-(4-hydroxyphenyl)-1H-pyrazolo[3,4-d]pyrimidin-1-yl)methyl)-3-(2-chlorobenzyl)-4-oxo-3,4-dihydroquinazolin-5-yl)hex-5-ynoic acid] |  |  | < 50 | 20 |  |  |  |  |  | − (− <30%) | − (− <30%) | dose dependent inhibition | 3.2 | 73 | 47.2 | 47.2 | 12.9 | 64.6 | 

From patent publication US9321773B2, “Compounds” (Respivert Ltd, priority 2009, dated 2016)
